From PMC8621101, “Inhibition of XPO-1 Mediated Nuclear Export through the Michael-Acceptor Character of Chalcones” (Pharmaceuticals, 2021) come the findings set out here.

Where only a bound is given, the exact number is not on record here.

One series relates to Hap-1 cells. Put plainly: Cell proliferation assay (IncuCyte confluence), Hap-1. The conditions noted are these: Homo sapiens, HAP1; Hap-1 chronic myeloid leukemia; 72 h; mean of two independent experiments ± SEM; read-out: IC50 antiproliferative activity Hap-1. It is filed as cell-based. How it is done:
(§1) Cancer cell lines HCT-116, NCI-H460, HL-60, K-562 and Z-138 were acquired from the American Type Culture Collection (ATCC, Manassas, VA, USA). The DND-41 cell line was purchased from the Deutsche Sammlung von Mikroorganismen und Zellkulturen (DSMZ Leibniz-Institut, Brunswick, Germany), and the HAP-1 cell line was ordered from Horizon Discovery (Horizon Discovery Group, Water Beach, UK). All cell lines were cultured as recommended by the suppliers. Culture media were purchased from Gibco Life Technologies and supplemented with 10% fetal bovine serum (HyClone, GE Healthcare Life Sciences, Chicago, Illinois, USA).
(§2) Adherent cell lines HCT-116, NCI-H460 and Hap-1 cells were seeded at a density between 500 and 1500 cells per well in 384-well tissue culture plates (Greiner). After overnight incubation, cells were treated with different concentrations of the test compounds. Suspension cell lines HL-60, K-562, Z-138 and DND-41 were seeded at densities ranging from 2500 to 5500 cells per well in 384-well culture plates containing the test compounds at the same concentration points.

The test system of a further series is HCT-116 cells. Put plainly: Cell proliferation assay (IncuCyte confluence), HCT-116. It is filed as cell-based. The conditions noted are these: Homo sapiens; HCT-116 colorectal carcinoma; 72 h; mean of two independent experiments ± SEM; read-out: IC50 antiproliferative activity HCT-116. As to the method: as §1, §2
Another series has as its system NCI-H460 cells. Put plainly: Cell proliferation assay (IncuCyte confluence), NCI-H460. It is filed as cell-based. The note with it: Homo sapiens; NCI-H460 lung carcinoma; 72 h; mean of two independent experiments ± SEM; read-out: IC50 antiproliferative activity NCI-H460. As to the method:
as §1, §2

A further series has as its system DND-41 cells. Put plainly: Cell proliferation assay (IncuCyte confluence), DND-41. The class given is cell-based. The conditions noted are these: DND41; DND-41 acute lymphoblastic leukemia; 72 h; mean of two independent experiments ± SEM; read-out: IC50 antiproliferative activity DND-41. How it is done:
as §1, §2

The next series relates to HL-60 cells. The series can be described thus: Cell proliferation assay (IncuCyte confluence), HL-60. The class given is cell-based. The conditions noted are these: Homo sapiens; HL-60 acute myeloid leukemia; 72 h; mean of two independent experiments ± SEM; read-out: IC50 antiproliferative activity HL-60. How it is done: as §1, §2
The next series has as its system K-562 cells. The series can be described thus: Cell proliferation assay (IncuCyte confluence), K-562. It is filed as cell-based. The note with it: Homo sapiens, K562; K-562 chronic myeloid leukemia; 72 h; mean of two independent experiments ± SEM; read-out: IC50 antiproliferative activity K-562. How it is done:
as §1, §2

Another series relates to Z-138 cells. Put plainly: Cell proliferation assay (IncuCyte confluence), Z-138. It is filed as cell-based. The conditions noted are these: Homo sapiens; Z-138 non-Hodgkin lymphoma; 72 h; mean of two independent experiments ± SEM; read-out: IC50 antiproliferative activity Z-138. How it is done:
as §1, §2

A further series deals with T1, XPO1 (Homo sapiens, UniProt O14980).
T1 construct: the compounds were assayed in a reporter cell line based on the subcellular localization of a XPO1-dependent GFP reporter cargo protein; endogenous in cells; host or cells: HeLa cells stably transfected with the NLSSV40-AcGFP-NESPKI reporter (only the reporter cargo is transfected, not XPO1)
T1 sequence (O14980 whole entry): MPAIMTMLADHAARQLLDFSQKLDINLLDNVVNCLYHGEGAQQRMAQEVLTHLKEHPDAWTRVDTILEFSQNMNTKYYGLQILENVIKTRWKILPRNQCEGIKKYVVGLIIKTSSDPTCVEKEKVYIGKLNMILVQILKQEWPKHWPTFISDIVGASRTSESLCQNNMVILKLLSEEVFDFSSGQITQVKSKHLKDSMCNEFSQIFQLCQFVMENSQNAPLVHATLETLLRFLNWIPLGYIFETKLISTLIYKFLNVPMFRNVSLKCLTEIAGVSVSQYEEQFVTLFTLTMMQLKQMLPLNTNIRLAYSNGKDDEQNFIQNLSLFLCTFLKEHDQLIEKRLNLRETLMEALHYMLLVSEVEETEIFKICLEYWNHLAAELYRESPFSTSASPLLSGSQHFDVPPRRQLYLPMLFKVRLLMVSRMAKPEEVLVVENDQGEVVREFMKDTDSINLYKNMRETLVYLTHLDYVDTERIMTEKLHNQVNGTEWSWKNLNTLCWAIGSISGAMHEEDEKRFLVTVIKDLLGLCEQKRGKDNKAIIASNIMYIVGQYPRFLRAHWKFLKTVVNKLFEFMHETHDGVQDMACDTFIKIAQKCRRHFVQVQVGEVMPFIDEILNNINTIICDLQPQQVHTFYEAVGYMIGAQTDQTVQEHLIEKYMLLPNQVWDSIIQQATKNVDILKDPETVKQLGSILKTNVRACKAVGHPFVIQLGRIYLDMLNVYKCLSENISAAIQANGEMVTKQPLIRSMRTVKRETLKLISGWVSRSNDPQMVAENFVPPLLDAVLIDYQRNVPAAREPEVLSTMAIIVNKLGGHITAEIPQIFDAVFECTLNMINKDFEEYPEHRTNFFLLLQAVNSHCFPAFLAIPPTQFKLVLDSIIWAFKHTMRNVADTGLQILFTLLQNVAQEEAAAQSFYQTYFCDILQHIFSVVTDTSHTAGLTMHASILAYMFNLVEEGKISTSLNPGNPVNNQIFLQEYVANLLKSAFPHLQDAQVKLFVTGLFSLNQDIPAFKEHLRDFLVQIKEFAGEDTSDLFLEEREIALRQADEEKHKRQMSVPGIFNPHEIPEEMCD
Put plainly: XPO1 phenotypic reporter assay in HeLa NLSSV40-AcGFP-NESPKI cells. The class given is cell-based. The note with it: HeLa GFP reporter cell line. How it is done:
(§3) Stably transfected HeLa NLSSV40-AcGFP-NESPKI were cultured as described in Vercruysse et al.
To study the XPO1-mediated nuclear export, stably transfected HeLa NLSSV40-AcGFP-NESPKI reporter cells were seeded at 8000 cells per well in 96-well all clear tissue culture plates (TPP). After overnight incubation, cells were treated with different doses of compound or solvent (DMSO) for 2 h and then fixed and counterstained with DAPI. Fluorescence was read on an ArrayScan XTI High Content Reader (Thermo Fisher Scientific, Waltham, MA, USA). Nuclear and cytoplasmic compartments were segmented and their average pixel intensities in the green channel were quantitated employing the HCS Studio software. Genedata Screener software was used for dose-response curve fitting, and calculation of EC50 values was based on the percentage of cells having a predominant nuclear localisation (ratio of nuclear to cytoplasmic signal equal or above 1.4) of the reporter construct. Compounds were tested in two independent experiments and represented as mean ± SEM.

Series [1] is described as follows: GSH reactivity assay (HPLC, DTNB quench). The class given is physicochemical. The conditions noted are these: 500 µM compound, 5 mM GSH, 37 °C. As to the method:
In order to determine if these chalcones could react with thiol groups through a hetero-Michael addition reaction, a few selected compounds (9, 10, 13 and 18) were incubated with glutathione (GSH). After different incubation times, the reactions were quenched by adding 5,5′-dithiobis(2-nitrobenzoic acid) (DTNB, Ellman´s reagent) (1:1 ratio with respect to the initial concentration of GSH). The course of the reaction was followed by HPLC, adapting reported procedures. […] Thus, although this assay is only qualitative, the tendency observed among these chalcones nicely fits the reactivity described for α-X-2´3,4,4´-tetramethylchalcones.
A 500 µM sample of the tested compound was incubated with 5 mM reduced L-glutathione for 24 h at 37 °C with a final volume of 200 μL. As a solvent system, 20 mM PBS buffer pH 7.4 with 2 mM EDTA:DMSO (1:1) was used. To perform the assay, stock solutions of 20 mM of the chalcones (9, 10, 13 and 18) and 15 mM of reduced L-glutathione were freshly prepared for every experiment and then diluted properly to give the final electrophile:nucleophile ratio (1:10). A 5 mM solution of 5,5′-dithiobis(2-nitrobenzoic acid) (DTNB) was prepared in the same solvent system to quench the reaction. After different time points (10 min, 1 h, 4 h and 24 h), an aliquot of 20 μL of the incubation mixture was quenched by adding 20 μL of the DTNB stock solution, mixed thoroughly, and then analyzed by HPLC. HPLC analysis was performed in Agilent 1120 compact LC, column ACE 5 C18-300 (15 cm × 4.6 mm); UV detection was performed at λ = 254 nm. Solvents used were acetonitrile for bottle A and H2O (containing 0.05% TFA) for bottle B, and the flow rate was 1mL/min. The gradients used were: (A) incubations with chalcone 9: from 10% to 80% of solvent A in 10 min; (B) incubations with chalcones 10 and 18: from 10% to 100% of solvent A in 10 min. The new peaks were analysed by LC-MS. As controls, a 500 μM solution of the α,β-unsaturated compound was also analysed, and a 5 mM reduced L-glutathione solution was quenched by adding DNTB at the same time points. In general, after 6 h of incubation, no GSH was detected.

Series [2] concerns panel of cancer cell lines. The series can be described thus: Antiproliferative activity, panel of cancer cell lines. It is filed as cell-based. The conditions noted are these: panel of cancer cell lines. As to the method:
as §2

The nature of series [3]: Stability in phosphate-buffered solution (PBS). It is filed as physicochemical. The source says: It has been described by performing kinetic measurements in α-X-2′3,4,4’-tetramethylchalcones that the nature of the substituent at position α of the chalcone affects their reactivity as electrophiles versus thiol groups. In such series, the α-COOEt substituent led to a similar reactivity as that of the α-H chalcone; the α-CH3 chalcone was poorly electrophilic, while the α-CN chalcone was the most electrophilic. Thus, in the naphthyl series (Figure 3), the synthesis of the chalcones where R1 = H, COOCH3, CH3 or CN was accomplished. The reaction of 1-(naphthalen-2-yl)ethan-1-one (11) with pyrimidine-5-carbaldehyde in the presence of Ba(OH)2 afforded α-H chalcone 9 in a 55% yield (Scheme 1). […] Reaction of the ester 12 with NH3/dioxane at 110 °C [29] led to the amide 14 that was further transformed into the chalcone 15. On the other hand, reaction of naphthalene 16 with propionyl chloride under Friedel–Crafts acylation conditions, as described, provided the 2-acyl derivative 17, together with a small proportion of its 1-isomer. This mixture of isomers reacted with pyrimidine-5-carbaldehyde to yield the α-CH3 chalcone 18 (30%). Finally, the synthesis of the α-CN derivative was addressed by the reaction of 2-methylnaphthoate (19) with acetonitrile to provide 3-oxopropanenitrile 20 [32], which was further transformed into the α-CN chalcone 21.

Another series addresses T2, XPO1 (Jurkat XPO1^WT) (Homo sapiens, UniProt O14980).
T2 construct: RanBP1 immunofluorescence staining was performed on both wild type and mutant XPO1^C528S Jurkat cells; endogenous in cells; host or cells: wild-type Jurkat leukemia cells
The series can be described thus: RanBP1 immunofluorescence (XPO1-mediated nuclear export) in wild-type Jurkat cells. It is filed as cell-based. The note with it: positive control at 1 μM, 3 h. As to the method:
(§4) The effect of the mutation on the activity of the inhibitors was assessed by the visualization of the subcellular localization of the XPO1 cargo RanBP1.
as §3
(§5) Cells were harvested at 400× g, washed in PBS and then transferred into an 8-well µ-Slide (Ibidi) pretreated with 0.1% (w/v) poly-L-lysine (Sigma). Cells were allowed to adhere to the slides and then subsequently fixed (4% PFA in PBS), washed and permeabilized (0.2% Triton X-100 in PBS). Further immunofluorescence staining was then performed according to standard procedures. Employed antibodies were rabbit anti-RanBP1 (ab97659, Abcam, Cambridge, UK) at a 1:500 dilution and secondary Alexa Fluor 488 goat anti-rabbit antibody (A11008, Invitrogen, ThermoFisher Scientific). Cell nuclei were counterstained with DAPI, and the samples were imaged by confocal microscopy on a Leica TCS SP5 confocal microscope (Leica Microsystems, Weitzlar, Germany), employing a HCX PL APO 63× (NA 1.2) water immersion objective. Subsequently, fluorescence was read on an ArrayScan XTI High Content Reader (Thermo Fisher Scientific, Waltham, MA, USA). Nuclear and cytoplasmic compartments were segmented, and their average pixel intensities in the green channel were quantitated similarly as for the XPO1 phenotypic reporter assay.

Series [4] addresses T3, XPO1^C528S (Jurkat XPO1^C528S) (Homo sapiens, UniProt O14980, C528S).
T3 construct: CRISPR/Cas9 genome editing of the Jurkat cell line was performed as in Neggers et al. [43] to generate a XPO1^C528S mutant cell line; endogenous in cells; host or cells: Jurkat cells genome-edited by CRISPR/Cas9 at the XPO1 locus (XPO1^C528S)
The series can be described thus: RanBP1 immunofluorescence (XPO1-mediated nuclear export) in mutant XPO1^C528S Jurkat cells. The conditions noted are these: positive control at 1 μM, 3 h. The class given is cell-based. How it is done:
as §4, §3, §5

T3 sequence (O14980 whole entry C528S): as the sequence (O14980 whole entry) above, with C528S counted along it

For the compound `COC(=O)/C(=C/c1cncnc1)C(=O)c1ccc2ccccc2c1` [Compound 13, (E)-2-Methoxycarbonyl-1-(naphthalene-2-yl)-3-(pyrimidin-5-yl)prop-2-en-1-one], the melting point – broadly, the temperature of the solid-liquid transition – fell in the range of 161 to 163 °C. The IC50 (in general, the concentration that inhibits the measured activity by half) in the series on Hap-1 cells is not below 54900 nM. The IC50 in the series on HCT-116 cells is not below 15500 nM. For the same compound, the IC50 in the series with NCI-H460 cells is not below 47100 nM. Besides, the IC50 in the series on DND-41 cells was not below 30600 nM. Also, the concentration for half-maximal inhibition (IC50) in the series on HL-60 cells is more than 100000 nM. For the same compound, the IC50 in the series on K-562 cells is more than 100000 nM. In the series with Z-138 cells, the IC50 is more than 100000 nM. Besides, the “XPO1 inhibition, in words” value at XPO1 is “inactive against XPO1”. At XPO1 (2 h treatment, mean ± SEM of two independent experiments, read-out: XPO1 inhibition IC50), the IC50 is more than 100000 nM. In series [1] (PBS pH 7.4 with EDTA:DMSO 1:1), the “Reaction with GSH (hetero-Michael addition), qualitative” value is “provided the Michael adducts with GSH after a short reaction time”. The “Reversibility of GSH adducts (retro-Michael), qualitative” value in [1] (longer incubation) is reported as “adducts reverted to the parent chalcone”. In addition, in series [2], the “Antiproliferative activity, in words” value was “almost inactive”.
Consider `N#C/C(=C\c1cncnc1)C(=O)c1ccc2ccccc2c1` [Compound 21, (E)-2-Cyano-1-(naphthalene-2-yl)-3-(pyrimidin-5-yl)prop-2-en-1-one], for which the “Stability in PBS” value in series [3] is “very unstable and readily decomposed”.
For `O=C(/C=C\n1cnc(-c2cc(C(F)(F)F)cc(C(F)(F)F)c2)n1)NNc1cnccn1` [KPT-330, selinexor, reference compound], the IC50 in the series on Hap-1 cells worked out at 70 ± 30 nM; in the series with HCT-116 cells, 100 ± 100 nM; in the series with NCI-H460 cells it was 120 ± 80 nM; with DND-41 cells, 50 nM; with HL-60 cells, 110 ± 100 nM; in the series with K-562 cells, 90 nM. Moreover, the IC50 in the series on Z-138 cells was 400 ± 400 nM. The “Subcellular localization of RanBP1, wild-type Jurkat” value on XPO1 (Jurkat XPO1^WT) was “RanBP1 was accumulated in the nucleus”. For the same compound, in series [4], the “Subcellular localization of RanBP1, mutant XPO1^C528S Jurkat” value is “RanBP1 remained in the cytoplasm”.
